Key:
Assay in all cases: relative viability (nuclei count vs DMSO), 5 days (fraction); higher = more cells survive
Elesclomol + Bortezomib = compound: CN(NC(=O)CC(=O)NN(C)C(=S)c1ccccc1)C(=S)c1ccccc1 [Elesclomol] + CC(C)C[C@H](NC(=O)[C@H](Cc1ccccc1)NC(=O)c1cnccn1)B(O)O [Bortezomib] (partner 0.002 µM)
In short: (§1)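 Nuclei were stained with Hoechst during a one-step fixation (final 0.05% Triton X-100, 1% formaldehyde, 1 ug/ml Hoechst) carried out 5 days after dosing, then counted on 4× images. The cells, lung cancer lines in 1536-well plates, had been dosed by pin tool the day after seeding with one drug alone or a fixed anchor-drug dose plus five library-drug doses (not always all listed) in √10 steps. Relative viability is the nuclei count in treated wells divided by that in vehicle wells, and each value is the median of duplicate plates.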

Elesclomol + Pictilisib = compound: CN(NC(=O)CC(=O)NN(C)C(=S)c1ccccc1)C(=S)c1ccccc1 [Elesclomol] + CS(=O)(=O)N1CCN(Cc2cc3nc(-c4cccc5[nH]ncc45)nc(N4CCOCC4)c3s2)CC1 [Pictilisib] (partner 1 µM)
In short: as §1

Elesclomol + Lapatinib = compound: CN(NC(=O)CC(=O)NN(C)C(=S)c1ccccc1)C(=S)c1ccccc1 [Elesclomol] + CS(=O)(=O)CCNCc1ccc(-c2ccc3ncnc(Nc4ccc(OCc5cccc(F)c5)c(Cl)c4)c3c2)o1 [Lapatinib] (partner 2 µM)
In short: as §1

Elesclomol + Navitoclax = compound: CN(NC(=O)CC(=O)NN(C)C(=S)c1ccccc1)C(=S)c1ccccc1 [Elesclomol] + CC1(C)CCC(c2ccc(Cl)cc2)=C(CN2CCN(c3ccc(C(=O)NS(=O)(=O)c4ccc(N[C@H](CCN5CCOCC5)CSc5ccccc5)c(S(=O)(=O)C(F)(F)F)c4)cc3)CC2)C1 [Navitoclax] (partner 0.5 µM)
In short: as §1

Elesclomol + OSI-027 = compound: CN(NC(=O)CC(=O)NN(C)C(=S)c1ccccc1)C(=S)c1ccccc1 [Elesclomol] + COc1cccc2cc(-c3nc([C@H]4CC[C@H](C(=O)O)CC4)n4ncnc(N)c34)[nH]c12 [OSI-027] (partner 0.5 µM)
In short: as §1

Cell Line | relative viability (Elesclomol + Bortezomib; first compound 0.003162 µM) | relative viability (Elesclomol + Bortezomib; first compound 0.01 µM) | relative viability (Elesclomol + Bortezomib; first compound 0.03162 µM) | relative viability (Elesclomol + Bortezomib; first compound 0.1 µM) | relative viability (Elesclomol + Pictilisib; first compound 0.003162 µM) | relative viability (Elesclomol + Pictilisib; first compound 0.01 µM) | relative viability (Elesclomol + Pictilisib; first compound 0.03162 µM) | relative viability (Elesclomol + Pictilisib; first compound 0.1 µM) | relative viability (Elesclomol + Lapatinib; first compound 0.003162 µM) | relative viability (Elesclomol + Lapatinib; first compound 0.01 µM) | relative viability (Elesclomol + Lapatinib; first compound 0.03162 µM) | relative viability (Elesclomol + Lapatinib; first compound 0.1 µM) | relative viability (Elesclomol + Navitoclax; first compound 0.003162 µM) | relative viability (Elesclomol + Navitoclax; first compound 0.01 µM) | relative viability (Elesclomol + Navitoclax; first compound 0.03162 µM) | relative viability (Elesclomol + Navitoclax; first compound 0.1 µM) | relative viability (Elesclomol + OSI-027; first compound 0.003162 µM) | relative viability (Elesclomol + OSI-027; first compound 0.01 µM) | relative viability (Elesclomol + OSI-027; first compound 0.03162 µM) | relative viability (Elesclomol + OSI-027; first compound 0.1 µM)
UMC-11 | 0.802 | 0.495 | 0.491 | 0.352 | 0.827 | 0.67 | 0.561 | 0.44 | 0.952 | 0.837 | 0.505 | 0.328 | 0.277 | 0.311 | 0.22 | 0.143 | 0.482 | 0.428 | 0.396 | 0.336
NCI-H1975 | 0.351 | 0.316 | 0.193 | 0.109 | 0.306 | 0.179 | 0.2 | 0.123 | 0.84 | 0.571 | 0.164 | 0.1 | 1 | 1.1 | 0.209 | 0.12 | 0.863 | 0.455 | 0.392 | 0.0658
COR-L23 | 0.809 | 0.625 | 0.579 | 0.252 | 0.662 | 0.308 | 0.224 | 0.24 | 0.885 | 0.484 | 0.434 | 0.178 | 0.9 | 0.616 | 0.461 | 0.0852 | 0.757 | 0.408 | 0.254 | 0.0774
CAL-12T | 1.01 | 0.555 | 0.257 | 0.119 | 0.521 | 0.146 | 0.0826 | 0.0934 | 0.529 | 0.484 | 0.103 | 0.0805 | 1 | 0.243 | 0.123 | 0.0625 | 0.504 | 0.277 | 0.139 | 0.0937
SW 1573 | 1.02 | 0.174 | 0.105 | 0.103 | 0.479 | 0.121 | 0.104 | 0.074 | 1.04 | 0.517 | 0.185 | 0.135 | 0.918 | 0.102 | 0.0652 | 0.0513 | 0.167 | 0.107 | 0.0847 | 0.0105
NCI-H2126 | 1.11 | 1.08 | 1.11 | 1.17 | 0.501 | 0.462 | 0.494 | 0.495 | 0.731 | 0.698 | 0.791 | 0.766 | 0.89 | 0.826 | 0.908 | 0.827 | 0.826 | 0.637 | 0.455 | 0.246
